Consider 22 compounds from patent US20110172217A1, “RING-FUSED MORPHOLINE DERIVATIVE HAVING PI3K-INHIBITING ACTIVITY” (Shionogi & Co., Ltd., priority 2008, published 2011).

For data set [1], the target named is T1, human ether-a-go-go related gene (hERG) channel (Homo sapiens, UniProt Q12809).
T1 construct: expressed in transfected cells; host or cells: HEK293
The experiment in a line: hERG test, whole-cell patch-clamp, IKr. The format is cell-based. The following applies: 1 μmol/L compound; HEK293 cell expressing hERG. The source says: For the purpose of risk evaluation of QT interval extension of electrocardiogram, the activity on delayed rectification K^+ current (IKr), which plays an important role in a cardiac ventricle repolarization process, was examined using the HEK293 cell that was made to express human ether-a-go-go related gene (hERG) channel.
Using an automatic patch-clamp system (PatchXpress 7000A, Axon Instruments Inc.), by a whole-cell patch-clamp method, after the cell was maintained at a membrane potential of −80 mV, IKr induced upon applying depolarizing stimulation of +50 mV for 2 seconds and further applying repolarizing stimulation of −50 mV for 2 seconds was recorded. After generated electric current became stable, a test substance dissolved at an intended concentration in extracellular fluid (137 mmol/L NaCl, 4 mmol/L KCl, 1.8 mmol/L CaCl2.2H2O, 1 mmol/L MgCl2.6H2O, 10 mmol/L glucose, 10 mmol/L HEPES (4-(2-hydroxyethyl)-1-piperazineethanesulfonic acid), pH=7.4) was applied to the cell for 10 minutes under room temperature condition. From the obtained IKr, the absolute value of the maximum tail current was measured using analysis software (DataXpress ver. 1, Molecular Devices Corporation) and the value of the electric current in a maintained membrane potential as baseline. Moreover, an inhibition ratio for the maximum tail current prior to the application of the test substance was calculated and then compared with a group of media-application (0.1% dimethylsulfoxide solution) to evaluate influence of the test substance on IKr.

Data set [2] concerns the target T2, PI-3 kinase γ (Homo sapiens, UniProt P48736). The experiment in a line: PI3Kγ inhibitory activity, PI3-kinase HTRF assay (inhibition ratio). It counts as biochemical. The following applies: 0.5 h, compound at 50 μmol/L. On the procedure:
For each compound synthesized in the above Examples, PI3Kγ inhibitory activity was measured.
The PI3Kγ inhibitory activity of a compound was evaluated using PI3-kinase HTRF™ assay (Millipore) according to the following procedure:
To each well of a testing plate, 5 μL of a compound solution containing 10% DMSO (200 μmol/L or 40 μmol/L as the concentration of the compound), 5 μL of a substrate solution (40 μmol/L phosphatidylinositol (4,5)-bisphosphate, 20 mmol/L MgCl2, 10 mmol/L DTT), and 5 μL of a enzyme solution (80 μg/mL PI-3 kinase γ, 10 mmol/L MgCl2, 5 mmol/L DTT) were added, and then allowed to stand for 10 minutes.
Then, 5 μL of a reaction solution (40 μmol/L ATP, 10 mmol/L MgCl2, 5 mmol/L DTT) was added thereto. After reacting for 30 minutes at room temperature, 5 μL of a solution containing EDTA and biotinylated phosphatidylinositol (3,4,5)-triphosphate were added to quench the reaction.
5 μL of a detection reagent containing a europium-labeled anti-GST antibody, the GST-tagged PH domain, and allophycocyanin-labeled streptavidin was added thereto. After 18 hours, HTRF (excitation wavelength: 330 nm, measured wavelengths: 620 nm and 665 nm) was measured.
HTRF ratio was defined as the value obtained by dividing the amount of fluorescence obtained at the measured wavelength 665 nm by the amount of fluorescence obtained at 620 nm. The HTRF ratio in the absence of a compound was defined as 100% activity and the HTRF ratio in the absence of PI-3 kinase γ was defined as 0% activity to calculate an inhibition ratio which was defined as the PI3Kγ inhibitory activity of a compound at 50 μmol/L or 10 μmol/L.

Data set [3] is described as follows: Solubility test in artificial intestinal juice pH 6.8. It counts as physicochemical. Conditions: kinetic from dmso stock, artificial intestinal juice pH 6.8, 1% DMSO, 25° C. On the procedure: The solubility of a compound was determined under a condition in which 1% DMSO was added. 10 mmol/L compound solution was prepared using DMSO, and then 6 μL of the compound solution was added to 594 μL of artificial intestinal juice in pH 6.8 (to 250 mL of 0.2 mol/L potassium dihydrogen phosphate reagent solution was added 118 mL of 0.2 mol/L NaOH reagent solution and water to provide a final volume of 1000 mL). After standing at 25° C. for 16 hours, the mixed solution was filtered with suction. The filtrate was diluted twice with methanol/water (1/1), and then a concentration in the filtration was measured with HPLC or LC/MS/MS by the absolute calibration method.

A short description of data set [4]: Metabolic stability test, pooled human liver microsome. The format is in vitro ADME. The following applies: 2 μmol/L compound; human liver microsome 0.5 mg protein/mL, NADPH, 37° C. As to the method: After a subject compound was reacted for a certain time using a commercially available pooled human liver microsome, a reacted sample and an unreacted sample are compared to calculate a survival ratio, and then the degree of metabolism in the liver was evaluated.
0.2 mL of a buffer solution (50 mmol/L of Tris-HCl in pH 7.4, 150 mmol/L of potassium chloride, and 10 mmol/L of magnesium chloride) containing a human liver microsome of 0.5 mg protein/mL was reacted in the presence of 1 mmol/L NADPH at 37° C. for 0 or 30 minutes (oxidative reaction). After reacting, 50 μL of the reaction solution was added to 100 μL of a solution of methanol/acetonitrile (1/1 (v/v)), mixed, and then centrifuged at 3000 rpm for 15 minutes. The test compound in the supernatant was quantitated with LC/MS/MS. The amount of the compound at a reaction time of 0 minute was defined as 100% and, based on that, the percentage of the test compound remained after reacting for 30 minutes was calculated.

Data set [5] deals with T2, PI-3 kinase γ. Briefly: PI3Kγ inhibitory activity (Ki value). The format is biochemical. The following applies: test ATP concentration 10 μmol/L. As to the method:
The PI3Kγ inhibitory activity (Ki value) of a compound was evaluated according to the following procedure:
5 μL of a compound solution containing 10% DMSO and 200 μmol/L of a compound was changed to 5 μL of a compound solution containing 10% DMSO and either 200, 64, 20, 6.4, 2, 0.64, or 0.20 μmol/L of the compound (optionally, this is diluted to a lower concentration). Using a method similar to the method for measuring PI3Kγ inhibitory activity, inhibition ratios were measured in the presence of the compound at 50, 16, 5, 1.6, 0.5, 0.16, and 0.05 μmol/L (optionally, a lower concentration). Then an IC50 value was calculated by a logistic approximation method or the linear regression method using two concentrations that across 50% inhibition. Separately, the ATP concentration in the reaction solution (40 μmol/L ATP, 10 mmol/L MgCl2, 5 mmol/L DTT) at the time of the start of a reaction in the absence of the compound was changed to 80, 40, 20, 10, 5, 2.5, 1.25, or 0.625 μmol/L. Then, HTRF ratios were measured by a similar method. The value obtained by subtracting the HTRF ratio at each ATP concentration from the HTRF ratio in the absence of PI-3 kinase γ was defined as the value obtained by multiplying reaction rate (v) at each ATP concentration with a constant. The Michaelis-Menten constant Km was then calculated by the Lineweaver-Burk plot method. The Ki value of a compound was calculated by the following formula.
Ki=IC50 value/(1+10 μmol/L (test ATP concentration)/Km(μmol/L))

Structures are written as SMILES.

T2 sequence (P48736 whole entry): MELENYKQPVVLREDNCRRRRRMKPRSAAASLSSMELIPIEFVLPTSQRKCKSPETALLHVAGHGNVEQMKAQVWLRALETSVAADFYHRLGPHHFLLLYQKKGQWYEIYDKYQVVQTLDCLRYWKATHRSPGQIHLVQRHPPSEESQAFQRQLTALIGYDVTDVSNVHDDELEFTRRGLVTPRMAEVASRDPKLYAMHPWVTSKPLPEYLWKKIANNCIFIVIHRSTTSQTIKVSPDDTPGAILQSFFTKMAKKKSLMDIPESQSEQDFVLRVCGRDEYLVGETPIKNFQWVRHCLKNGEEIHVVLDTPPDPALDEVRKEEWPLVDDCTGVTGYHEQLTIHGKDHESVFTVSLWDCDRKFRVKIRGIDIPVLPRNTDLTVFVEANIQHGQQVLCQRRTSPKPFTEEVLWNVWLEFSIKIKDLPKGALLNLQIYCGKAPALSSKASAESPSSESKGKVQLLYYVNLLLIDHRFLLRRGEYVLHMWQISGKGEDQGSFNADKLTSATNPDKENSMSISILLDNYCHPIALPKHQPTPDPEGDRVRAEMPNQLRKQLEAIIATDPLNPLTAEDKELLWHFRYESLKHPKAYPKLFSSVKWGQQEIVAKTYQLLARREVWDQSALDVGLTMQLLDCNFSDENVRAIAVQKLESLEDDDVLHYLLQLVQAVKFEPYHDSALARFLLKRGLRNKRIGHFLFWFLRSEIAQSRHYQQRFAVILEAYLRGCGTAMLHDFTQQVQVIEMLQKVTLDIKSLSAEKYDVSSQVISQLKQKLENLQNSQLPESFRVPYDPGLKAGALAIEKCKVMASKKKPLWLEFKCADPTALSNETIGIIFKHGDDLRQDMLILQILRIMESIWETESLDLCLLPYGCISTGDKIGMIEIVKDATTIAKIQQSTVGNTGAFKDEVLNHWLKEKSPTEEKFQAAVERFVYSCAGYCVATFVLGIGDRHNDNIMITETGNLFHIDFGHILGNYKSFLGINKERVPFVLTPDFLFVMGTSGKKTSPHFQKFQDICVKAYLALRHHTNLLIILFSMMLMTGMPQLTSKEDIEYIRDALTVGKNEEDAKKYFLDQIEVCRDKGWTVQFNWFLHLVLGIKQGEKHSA
T1 sequence (Q12809 whole entry): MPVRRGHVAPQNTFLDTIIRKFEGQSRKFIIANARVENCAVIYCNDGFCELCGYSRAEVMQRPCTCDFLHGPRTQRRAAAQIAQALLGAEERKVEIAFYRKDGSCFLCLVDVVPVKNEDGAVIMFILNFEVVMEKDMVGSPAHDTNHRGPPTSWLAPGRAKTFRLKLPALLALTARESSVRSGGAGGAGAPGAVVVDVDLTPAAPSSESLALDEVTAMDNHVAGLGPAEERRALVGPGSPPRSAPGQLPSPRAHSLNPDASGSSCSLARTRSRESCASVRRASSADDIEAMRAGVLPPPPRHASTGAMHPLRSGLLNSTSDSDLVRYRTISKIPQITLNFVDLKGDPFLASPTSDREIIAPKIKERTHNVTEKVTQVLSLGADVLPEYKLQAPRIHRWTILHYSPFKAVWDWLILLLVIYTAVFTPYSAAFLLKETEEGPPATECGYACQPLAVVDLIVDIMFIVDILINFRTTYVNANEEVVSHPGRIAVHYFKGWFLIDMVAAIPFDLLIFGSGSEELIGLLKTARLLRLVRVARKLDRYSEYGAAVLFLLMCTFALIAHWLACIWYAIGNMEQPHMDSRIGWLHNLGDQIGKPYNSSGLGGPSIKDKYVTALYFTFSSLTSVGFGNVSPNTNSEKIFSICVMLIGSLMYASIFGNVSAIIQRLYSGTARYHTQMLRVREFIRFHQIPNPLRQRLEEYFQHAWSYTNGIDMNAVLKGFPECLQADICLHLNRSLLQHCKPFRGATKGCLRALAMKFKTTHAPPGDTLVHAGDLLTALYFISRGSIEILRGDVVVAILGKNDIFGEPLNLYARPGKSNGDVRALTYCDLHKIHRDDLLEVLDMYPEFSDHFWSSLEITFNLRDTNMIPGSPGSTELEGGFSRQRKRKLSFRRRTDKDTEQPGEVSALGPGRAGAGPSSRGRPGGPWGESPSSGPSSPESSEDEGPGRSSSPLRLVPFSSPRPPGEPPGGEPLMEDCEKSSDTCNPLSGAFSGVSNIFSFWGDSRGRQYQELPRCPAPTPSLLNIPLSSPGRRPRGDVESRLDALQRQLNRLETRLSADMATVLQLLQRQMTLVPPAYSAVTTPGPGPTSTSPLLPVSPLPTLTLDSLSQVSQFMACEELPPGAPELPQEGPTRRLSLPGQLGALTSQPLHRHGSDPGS

As for `O=C(O)c1ccc(-c2ccc3c(n2)N(C(=O)Nc2ccccc2)CCO3)s1` [Compound I-109], the “hERG inhibition ratio for the maximum tail current (IKr)” value in data set [1] is recorded as 1%. The inhibition at 50 µM in data set [2] is at least 95%. The same compound gave a solubility at 16 h in data set [3] above 50 µM.

In the case of `O=C(O)c1ccc(Nc2cnc3c(c2)OCCN3C(=O)Nc2ccccc2)cc1` [Compound I-139], the “hERG inhibition ratio for the maximum tail current (IKr)” value in data set [1] was 8.7%. Further, in data set [2], the inhibition at 50 µM was at least 95%. Besides, the “percentage of test compound remained after reacting for 30 minutes” value in data set [4] was 83%. The compound further yielded a solubility at 16 h in data set [3] above 50 µM.

For the compound `O=C(O)c1ccc(Nc2ccc3c(n2)N(C(=O)Nc2ccccc2)CCO3)cc1` [Compound I-146], the inhibition at 50 µM in data set [2] is at least 95%. The “percentage of test compound remained after reacting for 30 minutes” value in data set [4] is 100%. The same compound yielded an inhibitory constant (Ki) in data set [5] of 46 nM.

Take `O=C(O)c1ccc(-c2ccc3c(n2)N(C(=O)Nc2cccnc2)CCO3)cc1` [Compound I-208]: the inhibition at 50 µM in data set [2] is at least 95%. Further, in data set [5], the affinity, expressed as Ki, was 31 nM.

Consider `O=C(O)COc1ccccc1Nc1ccc2c(n1)N(C(=O)Nc1ccccc1)CCO2` [Compound I-248], for which the inhibition at 50 µM in data set [2] is at least 95%. This compound also yielded a Ki in data set [5] of 25 nM. This compound also displayed a solubility at 16 h in data set [3] above 50 µM.

For `CCN(CC)c1ccc(Nc2cnc3c(c2)OCCN3C(=O)Nc2ccccc2)cc1` [Compound I-310], in data set [2], the inhibition at 50 µM was at least 95%.

As for `CCCCNS(=O)(=O)c1cccc(Nc2cnc3c(c2)OCCN3C(=O)Nc2ccccc2)c1` [Compound I-311], in data set [2], the inhibition at 50 µM is 81%.

As to `COc1ccc(Nc2cnc3c(c2)OCCN3C(=O)Nc2ccccc2)cc1` [Compound I-313], the inhibition at 50 µM in data set [2] was 92%.

For the compound `C#Cc1cccc(Nc2cnc3c(c2)OCCN3C(=O)Nc2ccccc2)c1` [Compound I-314], in data set [2], the inhibition at 50 µM was 78%.

Turning to `CC(C)(C)NC(=O)c1ccccc1Nc1cnc2c(c1)OCCN2C(=O)Nc1ccccc1` [Compound I-315], the inhibition at 50 µM in data set [2] was determined as 93%.

In the case of `O=C(Nc1ccccc1)N1CCOc2cc(Nc3ccc4ncccc4c3)cnc21` [Compound I-316], the inhibition at 50 µM in data set [2] worked out at 87%.

For `O=C(Nc1ccccc1)N1CCOc2cc(Nc3ccc4ncsc4c3)cnc21` [Compound I-317], the inhibition at 50 µM in data set [2] is at least 95%.

On to `N#Cc1ccc(Nc2cnc3c(c2)OCCN3C(=O)Nc2ccccc2)cc1` [Compound I-318], for which the inhibition at 50 µM in data set [2] was at least 95%.

As to `Cc1ccc(Nc2cnc3c(c2)OCCN3C(=O)Nc2ccccc2)cc1F` [Compound I-319], the inhibition at 50 µM in data set [2] came out at 92%.

On to `O=C(Nc1ccccc1)N1CCOc2cc(Nc3ccc4c(c3)CCO4)cnc21` [Compound I-320], for which the inhibition at 50 µM in data set [2] was 95%.

In the case of `COC(=O)c1ccc(-c2ccc(Nc3cnc4c(c3)OCCN4C(=O)Nc3ccccc3)cc2)cc1` [Compound I-321], in data set [2], the inhibition at 50 µM is 76%.

As to `O=C(Nc1ccccc1)N1CCOc2cc(Nc3ccc(Oc4ccccc4)cc3)cnc21` [Compound I-322], the inhibition at 50 µM in data set [2] was 78%.

With `O=C(Nc1ccccc1)N1CCOc2cc(Nc3ccc(S(=O)(=O)N4CCOCC4)cc3)cnc21` [Compound I-323], the inhibition at 50 µM in data set [2] is 89%.

With `O=C(Nc1ccccc1)N1CCOc2cc(Nc3ccc(CN4CCS(=O)(=O)CC4)cc3)cnc21` [Compound I-325], the inhibition at 50 µM in data set [2] is 82%.

`COC(=O)c1ccc(Nc2cnc3c(c2)OCCN3C(=O)Nc2ccccc2)cc1OC` [Compound I-327]: the inhibition at 50 µM in data set [2] turned out to be 86%.

As to `CCN(CC)c1cc(F)cc(Nc2cnc3c(c2)OCCN3C(=O)Nc2ccccc2)c1` [Compound I-328], the inhibition at 50 µM in data set [2] worked out at 91%.

Regarding `COc1ccc(-c2ccc3c(n2)N(C2=NC(=O)C(C)(C)S2)CCO3)cc1OC` [Compound I-330], the inhibition at 50 µM in data set [2] was found to be 95%. In data set [5], the Ki was 27 nM.
